Experimental data taken from patent USRE50663E1, “Heterocycle derivatives as pesticides” (Bayer Aktiengesellschaft, priority 2017, dated 2025).

Key:
[1] = test system: larvae of the diamondback moth (Plutella xylostella); assay: Comparative Plutella xylostella spray test (PLUTMA); type: in vivo; conditions: 168 h, 7 dat, read-out: % efficacy
Procedure: (§1) Solvent: 14 parts by weight of dimethylformamide
(§2) Emulsifier: alkylaryl polyglycol ether
(§3) To produce a suitable active compound formulation, 1 part by weight of active compound is dissolved with the specified parts by weight of solvent and made up to the desired concentration with water containing an emulsifier concentration of 1000 ppm. To produce further test concentrations, the formulation is diluted with emulsifier-containing water. If the addition of ammonium salts or/and penetrants is required, these are each added in a concentration of 1000 ppm to the formulation solution.
Cabbage leaves (Brassica oleracea) are sprayed with an active ingredient formulation of the desired concentration and infected with larvae of the diamondback moth (Plutella xylostella).
(§4) After the desired time, the kill in % is determined. 100% means that all caterpillars have been killed; 0% means that none of the caterpillars have been killed.

[2] = test system: caterpillars of the armyworm (Spodoptera frugiperda); assay: Comparative Spodoptera frugiperda drench test (SPODFR D); type: in vivo; conditions: soil, 336 h, 14 dat, read-out: % efficacy
Procedure: Solvent: 7 parts by weight of dimethylformamide
Emulsifier: 2 parts by weight of alkylaryl polyglycol ether
To produce a suitable active ingredient formulation, 1 part by weight of active ingredient is mixed with the specified amounts of solvent and emulsifier, and the concentrate is diluted with water to the desired concentration, it being necessary to take into account the volume of soil which is drenched. It should be ensured that a concentration of 40 ppm of emulsifier in the soil is not exceeded. To produce further test concentrations, water is used for dilution.
Maize plants (Zea mays) in pots of soil are watered with an active ingredient formulation of the desired concentration and infected with caterpillars of the armyworm (Spodoptera frugiperda).
as §4

[3] = test system: green peach aphids (Myzus persicae); assay: Myzus persicae oral test; type: in vivo; conditions: 120 h, 4 ppm, after 5 days, read-out: efficacy
Procedure: Solvent: 100 parts by weight of acetone
To produce a suitable active compound formulation, 1 part by weight of active compound is dissolved with the stated parts by weight of solvent and made up to the desired concentration with water.
50 μl of the active compound formulation are transferred into microtitre plates and made up to a final volume of 200 μl with 150 μl of IPL41 insect medium (33%+15% sugar). Subsequently, the plates are sealed with parafilm, which a mixed population of green peach aphids (Myzus persicae) within a second microtitre plate is able to puncture and imbibe the solution.
After 5 days, the efficacy in % is determined. 100% means that all the aphids have been killed; 0% means that no aphids have been killed.

[4] = test system: caterpillars of the cotton bollworm (Heliothis armigera); assay: Comparative Heliothis armigera spray test (HELIAR); type: in vivo; conditions: Helicoverpa armigera, 168 h, 7 dat, read-out: % efficacy
Procedure: as §1, §2, §3
Cotton plants (Gossypium hirsutum) are sprayed with an active compound formulation of the desired concentration and, after drying, populated with caterpillars of the cotton bollworm (Heliothis armigera).
as §4

[5] = test system: southern root-knot nematode (Meloidogyne incognita); assay: Meloidogyne incognita test; type: in vivo; conditions: 20 ppm, after 14 days, lettuce
Procedure: Solvent: 125.0 parts by weight of acetone
To produce a suitable active compound formulation, 1 part by weight of active compound is mixed with the stated amount of solvent and the concentrate is diluted to the desired concentration with water.
Vessels are filled with sand, active compound solution, an egg/larvae suspension of the southern root-knot nematode (Meloidogyne incognita) and lettuce seeds. The lettuce seeds germinate and the plants develop. The galls develop on the roots.
After 14 days, the nematicidal efficacy in % is determined by the formation of galls. 100% means that no galls were found; 0% means that the number of galls on the treated plants corresponds to the untreated control.

[6] = test system: green peach aphid (Myzus persicae); assay: Comparative Myzus persicae spray test (MYZUPE); type: in vivo; conditions: 144 h, 6 dat, read-out: % efficacy
Procedure: as §1, §2, §3
Bell pepper plants (Capsicum annuum) severely infested with the green peach aphid (Myzus persicae) are treated by spraying with the active ingredient formulation in the desired concentration.
After the desired time, the kill in % is determined. 100% means that all the animals have been killed; 0% means that no animals have been killed.

[7] = test system: adult cat fleas (Ctenocephalides felis); assay: Ctenocephalides felis in vitro contact test with adult cat fleas; type: in vivo; conditions: application rate 5 μg/cm^2 (=500 g/ha), after 48 h, dead or moribund fleas
Procedure: For the coating of the test tubes, 9 mg of active compound are first dissolved in 1 ml of acetone p.a. and then diluted to the desired concentration with acetone p.a. 250 μl of the solution are distributed homogeneously on the inner walls and the base of a 25 ml glass tube by turning and rocking on an orbital shaker (rocking rotation at 30 rpm for 2 h). With 900 ppm of active compound solution and internal surface area 44.7 cm^2, given homogeneous distribution, an area-based dose of 5 μg/cm^2 is achieved.
After the solvent has evaporated off, the tubes are populated with 5-10 adult cat fleas (Ctenocephalides felis), sealed with a perforated plastic lid and incubated in a horizontal position at room temperature and ambient humidity. After 48 h, efficacy is determined. To this end, the tubes are stood upright and the fleas are knocked to the base of the tube. Fleas which remain motionless at the base or move in an uncoordinated manner are considered to be dead or moribund.
100% efficacy means that all the fleas were dead or moribund. 0% efficacy means that no fleas were harmed.

[8] = test system: larvae of the mustard beetle (Phaedon cochleariae); assay: Phaedon cochleariae spray test; type: in vivo; conditions: foliar, 168 h, 100 g/ha, after 7 days, Chinese cabbage leaf discs, read-out: efficacy
How it was run: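 Chinese cabbage leaf discs sprayed with compound formulated in acetone/DMF and emulsifier-containing water, then infested with mustard beetle larvae after drying. Efficacy (% larvae killed) scored after 7 days.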

[9] = test system: caterpillars of the fall armyworm (Spodoptera frugiperda); assay: Spodoptera frugiperda spray test; type: in vivo; conditions: foliar, 168 h, 100 g/ha, after 7 days, maize leaf discs, read-out: efficacy
How it was run: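 Maize leaf discs sprayed with compound formulated in acetone/dimethylformamide and diluted in water with 1000 ppm alkylaryl polyglycol ether emulsifier, then infested with fall armyworm caterpillars once dry. Efficacy read after 7 days as % caterpillars killed (100% = all dead, 0% = none).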

[10] = logP by HPLC on reversed-phase column (C18), acidic range; type: physicochemical; conditions: reversed-phase HPLC column (C18), formic acid in water/acetonitrile
Procedure: The logP values were determined according to EEC Directive 79/831 Annex V.A8 by HPLC (high-performance liquid chromatography) on a reversed-phase column (C18) using the following methods:
Calibration was carried out using a homologous series of straight-chain alkan-2-ones (having 3 to 16 carbon atoms) with known logP values. The values between successive alkanones are determined by linear regression.

CCS(=O)(=O)c1c(-c2nc3cc(C(F)(F)F)cnc3n2C)nc2cc(C3(C#N)CC3)ccn12 [Example I-11, 1-{3-(Ethylsulfonyl)-2-[3-methyl-6-(trifluoromethyl)-3H-imidazo[4,5-b]pyridin-2-yl]imidazo[1,2-a]pyridin-7-yl}cyclopropanecarbonitrile]
90%: pest or weed control at 4 ppm [3] | Emax at 0.8 ppm [6]
100%: Emax at 0.16 ppm [1] | Emax at 0.16 ppm [2] | Emax at 0.16 ppm [4] | nematicidal efficacy (formation of galls) [5] | efficacy [7] | pest or weed control at 100 g/ha [8] | pest or weed control at 100 g/ha [9]
2.88: chromatographic logP [10]
